# Earlier results in article PMC7904743, “WIDOCK: a reactive docking protocol for virtual screening of covalent inhibitors” (Journal of Computer-Aided Molecular Design, 2021).
# Where two headings read alike, the source gives them in different places.
# Columns and labels:
# NUDT7 = conditions: protein labeling at 200 μM; experimental actives if % labeling higher than 50%; cited from earlier work
# OTUB2 = conditions: experimental actives if % labeling higher than 50%, cited from earlier work
# [1] = thiol reactivity, cited from earlier work
# [2] = natural log of average rate constant k
# [3] = natural logarithm of average rate constant
# [4] = natural log of average kinetic rate constant
# [5] = natural log of average rate constant
smiles,measurement,setting,value
"COc1ccccc1N1CCN(C(=O)CCl)CC1 [PCM-0102173, COc1ccccc1N1CCN(C(=O)CCl)CC1]",NUDT7 % labeling,NUDT7,0%
same,OTUB2 % labeling,OTUB2,0%
same,ln(avg k),[1]; [2],-15.826
same,ln(avg k),[1]; [3],-15.826
"O=C(CCl)N1CCN(c2ncc(C(F)(F)F)cc2Cl)CC1 [PCM-0102378, O=C(CCl)N1CCN(c2ncc(C(F)(F)F)cc2Cl)CC1]",NUDT7 % labeling,NUDT7,14%
same,OTUB2 % labeling,OTUB2,5%
same,ln(avg k),[1]; [2],-15.476
same,ln(avg k),[1]; [3],-15.476
"Cc1cccc(N2CCN(C(=O)CCl)CC2)c1 [PCM-0102185, Cc1cccc(N2CCN(C(=O)CCl)CC2)c1]",NUDT7 % labeling,NUDT7,5%
same,OTUB2 % labeling,OTUB2,0%
same,ln(avg k),[1]; [2],-15.479
same,ln(avg k),[1]; [3],-15.479
"O=C(CCl)Nc1cccc(Cl)c1Cl [PCM-0102797, O=C(CCl)Nc1cccc(Cl)c1Cl]",NUDT7 % labeling,NUDT7,15%
same,OTUB2 % labeling,OTUB2; OTUB2 protein labeling,0%
same,ln(avg k),[1]; [4],-15.881
same,ln(avg k),[1]; [5],-15.881
"O=C(CCl)N1CCCC1c1ccc2c(c1)OCCO2 (stereo not shown) [PCM-0102298, O=C(CCl)N1CCCC1c1ccc2c(c1)OCCO2]",NUDT7 % labeling,NUDT7,100%
same,OTUB2 % labeling,OTUB2,0%
same,ln(avg k),[1]; [2],-15.407
same,ln(avg k),[1]; [3],-15.407
"O=C(NC1CCN(C(=O)CCl)CC1)c1ccccc1 [PCM-0102575, O=C(NC1CCN(C(=O)CCl)CC1)c1ccccc1]",NUDT7 % labeling,NUDT7,9%
same,OTUB2 % labeling,OTUB2,9%
same,ln(avg k),[1]; [2],-15.398
same,ln(avg k),[1]; [3],-15.398
"Cc1ccc(C(=O)O)cc1NC(=O)CCl [PCM-0102624, Cc1ccc(C(=O)O)cc1NC(=O)CCl]",NUDT7 % labeling,NUDT7,0%
same,OTUB2 % labeling,OTUB2,0%
same,ln(avg k),[1]; [2],-17.065
same,ln(avg k),[1]; [3],-17.065
"O=C(CCl)NC(=O)NCc1ccco1 [PCM-0102494, O=C(CCl)NC(=O)NCc1ccco1]",NUDT7 % labeling,NUDT7,0%
same,OTUB2 % labeling,OTUB2,0%
same,ln(avg k),[1]; [2],-16.128
same,ln(avg k),[1]; [3],-16.128
"Cc1csc(N(C(=O)CCl)c2ccccc2)n1 [PCM-0102265, Cc1csc(N(C(=O)CCl)c2ccccc2)n1]",NUDT7 % labeling,NUDT7,19%
same,OTUB2 % labeling,OTUB2,6%
same,ln(avg k),[1]; [2],-15.232
same,ln(avg k),[1]; [3],-15.232
"CC(=O)Nc1ccc(NC(=O)CCl)c(C(F)(F)F)c1 [PCM-0102895, CC(=O)Nc1ccc(NC(=O)CCl)c(C(F)(F)F)c1]",NUDT7 % labeling,NUDT7,0%
same,OTUB2 % labeling,OTUB2; OTUB2 protein labeling,0%
same,ln(avg k),[1]; [4],-16.611
same,ln(avg k),[1]; [5],-16.611
"O=C(CCl)N1CCCC1c1ccc2c(c1)OCCCO2 (stereo not shown) [PCM-0102512, O=C(CCl)N1CCCC1c1ccc2c(c1)OCCCO2]",NUDT7 % labeling,NUDT7,88%
same,OTUB2 % labeling,OTUB2,0%
same,ln(avg k),[1]; [2],-15.497
same,ln(avg k),[1]; [3],-15.497
"CC(NC(=O)CCl)c1cccs1 (stereo not shown) [PCM-0102180, CC(NC(=O)CCl)c1cccs1]",NUDT7 % labeling,NUDT7,16%
same,OTUB2 % labeling,OTUB2,55%
same,ln(avg k),[1]; [2],-16.321
same,ln(avg k),[1]; [3],-16.321
"O=C(CCl)N1CCN(C(=O)c2cccs2)CC1 [PCM-0102306, O=C(CCl)N1CCN(C(=O)c2cccs2)CC1]",NUDT7 % labeling,NUDT7,0%
same,OTUB2 % labeling,OTUB2,0%
same,ln(avg k),[1]; [2],-15.421
same,ln(avg k),[1]; [3],-15.421
"O=C(CCl)N1CCC(C(=O)N2CCCCC2)CC1 [PCM-0102972, O=C(CCl)N1CCC(C(=O)N2CCCCC2)CC1]",NUDT7 % labeling,NUDT7,0%
same,OTUB2 % labeling,OTUB2; OTUB2 protein labeling,8%
same,ln(avg k),[1]; [4],-15.512
same,ln(avg k),[1]; [5],-15.512
"O=C(CCl)N1CCN(C(=O)C2CC2)CC1 [PCM-0102970, O=C(CCl)N1CCN(C(=O)C2CC2)CC1]",NUDT7 % labeling,NUDT7,7%
same,OTUB2 % labeling,OTUB2; OTUB2 protein labeling,0%
same,ln(avg k),[1]; [4],-15.304
same,ln(avg k),[1]; [5],-15.304
"O=C(CCl)NC(=O)Nc1ccc2c(c1)OCCCO2 [PCM-0102910, O=C(CCl)NC(=O)Nc1ccc2c(c1)OCCCO2]",NUDT7 % labeling,NUDT7,0%
same,OTUB2 % labeling,OTUB2; OTUB2 protein labeling,0%
same,ln(avg k),[1]; [4],-16.097
same,ln(avg k),[1]; [5],-16.097
"COC(=O)c1cccc(NC(=O)CCl)n1 [PCM-0102977, COC(=O)c1cccc(NC(=O)CCl)n1]",NUDT7 % labeling,NUDT7,0%
same,OTUB2 % labeling,OTUB2; OTUB2 protein labeling,0%
same,ln(avg k),[1]; [4],-16.790
same,ln(avg k),[1]; [5],-16.790
"O=C(CCl)NNC(=O)CC1CCS(=O)(=O)C1 (stereo not shown) [PCM-0102998, O=C(CCl)NNC(=O)CC1CCS(=O)(=O)C1]",NUDT7 % labeling,NUDT7,0%
same,OTUB2 % labeling,OTUB2; OTUB2 protein labeling,69%
same,ln(avg k),[1]; [4],-16.898
same,ln(avg k),[1]; [5],-16.898
"O=C(Nc1ccccc1)NN(C(=O)CCl)c1ccccc1 [PCM-0102957, O=C(Nc1ccccc1)NN(C(=O)CCl)c1ccccc1]",NUDT7 % labeling,NUDT7,100%
same,OTUB2 % labeling,OTUB2; OTUB2 protein labeling,0%
same,ln(avg k),[1]; [4],-15.066
same,ln(avg k),[1]; [5],-15.066
"Cc1c(C#N)c(NC(=O)CCl)n(C2CCCC2)c1C [PCM-0102183, Cc1c(C#N)c(NC(=O)CCl)n(C2CCCC2)c1C]",NUDT7 % labeling,NUDT7,28%
same,OTUB2 % labeling,OTUB2,0%
same,ln(avg k),[1]; [2],-15.991
same,ln(avg k),[1]; [3],-15.991
"O=C(CCl)Nc1ccc(F)c([N+](=O)[O-])c1 [PCM-0102238, O=C(CCl)Nc1ccc(F)c([N+](=O)[O-])c1]",NUDT7 % labeling,NUDT7,23%
same,OTUB2 % labeling,OTUB2,32%
same,ln(avg k),[1]; [2],-15.369
same,ln(avg k),[1]; [3],-15.369
"O=C(CCl)Nc1nc2ccc(Br)cc2s1 [PCM-0102126, O=C(CCl)Nc1nc2ccc(Br)cc2s1]",NUDT7 % labeling,NUDT7,100%
same,OTUB2 % labeling,OTUB2,12%
same,ln(avg k),[1]; [2],-16.235
same,ln(avg k),[1]; [3],-16.235
"O=C(CCl)N1CCCc2cccc(F)c21 [PCM-0103071, O=C(CCl)N1CCCc2cccc(F)c21]",NUDT7 % labeling,NUDT7,40%
same,OTUB2 % labeling,OTUB2; OTUB2 protein labeling,0%
same,ln(avg k),[1]; [4],-16.007
same,ln(avg k),[1]; [5],-16.007
"CC(NC(=O)CCl)c1ccccc1Cl (stereo not shown) [PCM-0102110, CC(NC(=O)CCl)c1ccccc1Cl]",NUDT7 % labeling,NUDT7,0%
same,OTUB2 % labeling,OTUB2,25%
same,ln(avg k),[1]; [2],-16.453
same,ln(avg k),[1]; [3],-16.453
"CC(c1cc2ccccc2o1)N(C)C(=O)CCl (stereo not shown) [PCM-0102971, CC(c1cc2ccccc2o1)N(C)C(=O)CCl]",NUDT7 % labeling,NUDT7,66%
same,OTUB2 % labeling,OTUB2; OTUB2 protein labeling,0%
same,ln(avg k),[1]; [4],-16.092
same,ln(avg k),[1]; [5],-16.092
"COC(=O)C1Cc2ccccc2CN1C(=O)CCl (stereo not shown) [PCM-0102841, COC(=O)C1Cc2ccccc2CN1C(=O)CCl]",NUDT7 % labeling,NUDT7,19%
same,OTUB2 % labeling,OTUB2; OTUB2 protein labeling,41%
same,ln(avg k),[1]; [4],-14.128
same,ln(avg k),[1]; [5],-14.128
"CC1CCC(N(C)C(=O)CCl)CC1 (stereo not shown) [PCM-0103019, CC1CCC(N(C)C(=O)CCl)CC1]",NUDT7 % labeling,NUDT7,0%
same,OTUB2 % labeling,OTUB2; OTUB2 protein labeling,0%
same,ln(avg k),[1]; [4],-16.049
same,ln(avg k),[1]; [5],-16.049
"O=C(CCl)NC1(c2ccc3c(c2)OCCO3)CCCC1 [PCM-0102951, O=C(CCl)NC1(c2ccc3c(c2)OCCO3)CCCC1]",NUDT7 % labeling,NUDT7,100%
same,OTUB2 % labeling,OTUB2; OTUB2 protein labeling,0%
same,ln(avg k),[1]; [4],-16.488
same,ln(avg k),[1]; [5],-16.488
"COC(=O)C1(NC(=O)CCl)CCCCC1 [PCM-0102734, COC(=O)C1(NC(=O)CCl)CCCCC1]",NUDT7 % labeling,NUDT7,0%
same,OTUB2 % labeling,OTUB2,0%
same,ln(avg k),[1]; [5],-16.826
same,ln(avg k),[1]; [3],-16.826
"NS(=O)(=O)c1cccc(NC(=O)CCl)c1 [PCM-0102162, NS(=O)(=O)c1cccc(NC(=O)CCl)c1]",NUDT7 % labeling,NUDT7,0%
same,OTUB2 % labeling,OTUB2,58%
same,ln(avg k),[1]; [2],-15.171
same,ln(avg k),[1]; [3],-15.171
"O=C(CCl)NCc1ccccc1F [PCM-0102149, O=C(CCl)NCc1ccccc1F]",NUDT7 % labeling,NUDT7,0%
same,OTUB2 % labeling,OTUB2,62%
same,ln(avg k),[1]; [2],-16.082
same,ln(avg k),[1]; [3],-16.082
"N#CCc1ccc(NC(=O)CCl)cc1 [PCM-0102148, N#CCc1ccc(NC(=O)CCl)cc1]",NUDT7 % labeling,NUDT7,10%
same,OTUB2 % labeling,OTUB2,43%
same,ln(avg k),[1]; [2],-15.302
same,ln(avg k),[1]; [3],-15.302
"CN(Cc1ccc(Cl)c(Cl)c1)C(=O)CCl [PCM-0102349, CN(Cc1ccc(Cl)c(Cl)c1)C(=O)CCl]",NUDT7 % labeling,NUDT7,59%
same,OTUB2 % labeling,OTUB2,0%
same,ln(avg k),[1]; [2],-15.496
same,ln(avg k),[1]; [3],-15.496
"O=C1CN(C(=O)CCl)CCN1 [PCM-0103008, O=C1CN(C(=O)CCl)CCN1]",NUDT7 % labeling,NUDT7,0%
same,OTUB2 % labeling,OTUB2; OTUB2 protein labeling,0%
same,ln(avg k),[1]; [4],-15.775
same,ln(avg k),[1]; [5],-15.775
